Data from patent US20200237766A1, “PKM2 ACTIVATORS IN COMBINATION WITH REACTIVE OXYGEN SPECIES FOR TREATMENT OF CANCER” (TOLERO PHARMACEUTICALS, INC., priority 2017, published 2020).
Where two headings read alike, the source gives them in different places. Blank lines part the entries; values can stand above or below the compound they belong to.

Molecular target: PKM2 (Homo sapiens, UniProt P14618)
Experiment: PKM2 activation biochemical assay (AC50 / max. response vs fructose 1,6-bisphosphate)
Conditions: for Max. Resp. (%): % maximum response in a biochemical assay as compared with Fructose 1,6-bisphosphate
[1] = biochemical assay, read-out: PKM2 AC50

PKM2, sequence (P14618 whole entry): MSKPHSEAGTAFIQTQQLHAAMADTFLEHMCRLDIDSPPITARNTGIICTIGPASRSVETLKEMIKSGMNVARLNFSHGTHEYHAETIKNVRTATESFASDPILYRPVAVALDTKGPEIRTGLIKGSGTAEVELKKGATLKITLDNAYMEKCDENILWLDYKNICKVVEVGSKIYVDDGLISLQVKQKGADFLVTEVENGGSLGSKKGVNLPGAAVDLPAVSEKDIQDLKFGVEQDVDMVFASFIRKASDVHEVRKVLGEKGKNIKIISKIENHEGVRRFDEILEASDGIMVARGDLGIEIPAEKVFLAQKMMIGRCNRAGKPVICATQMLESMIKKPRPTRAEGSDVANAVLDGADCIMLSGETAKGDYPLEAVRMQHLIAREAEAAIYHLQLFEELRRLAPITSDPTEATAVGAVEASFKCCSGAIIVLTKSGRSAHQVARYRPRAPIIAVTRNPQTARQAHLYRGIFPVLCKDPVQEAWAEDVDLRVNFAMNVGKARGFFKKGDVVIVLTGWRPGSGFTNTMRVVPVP

AC50 [1]: 17000 nM
Compound: Cn1cc(C(=O)c2cccc(Cl)c2Cl)cc1C(N)=O [CA2]

AC50 [1]: 3.2 nM
Compound: Cn1cc(C(=O)c2cccc(Cl)c2Cl)cc1C(=O)NCNC(=O)c1cc(C(=O)c2cccc(Cl)c2Cl)cn1C [CA4]

AC50 [1]: 14 nM
Compound: Cn1cc(C(=O)c2cccc(Cl)c2Cl)cc1C(=O)NCCNC(=O)c1cc(C(=O)c2cccc(Cl)c2Cl)cn1C [CA5]

Max. Resp. (%): 100%
Compound: O=C(c1cc(C(F)(F)F)n[nH]1)N(Cc1ccc(O)cc1F)CC1CCC1 [Compound 1]

AC50: 3790 nM
Max. Resp. (%): 39%
Compound: N#Cc1cc(C(=O)N(Cc2ccc(O)cc2F)CC2CCC2)[nH]n1 [Compound 2]

Compound: Nc1cc(C(=O)N(Cc2ccc(O)cc2F)CC2CCC2)[nH]n1 [Compound 3]
Max. Resp. (%): 45%
AC50 [1]: 43800 nM

Max. Resp. (%): 52%
AC50 [1]: 1480 nM
Compound: CC(c1ccccc1)N(CC1CCC1)C(=O)c1cc(N)n[nH]1 (stereo not shown) [Compound 4]

Compound: CC(c1ccccc1)N(CC1CCC1)C(=O)c1cc(C(F)(F)F)n[nH]1 (stereo not shown) [Compound 5]
Max. Resp. (%): 106%
AC50 [1]: 4650 nM

Max. Resp. (%): 100%
Compound: O=C(c1cc(C(F)(F)F)n[nH]1)N(Cc1cccc2[nH]ccc12)CC1CCC1 [Compound 6]

Max. Resp. (%): 87%
AC50 [1]: 3450 nM
Compound: O=C(c1cc(C(F)(F)F)n[nH]1)N(Cc1cccc2[nH]c(=O)sc12)CC1CCC1 [Compound 7]

Compound: O=C(c1cc(Cl)n[nH]1)N(Cc1cccc2[nH]c(=O)sc12)CC1CCC1 [Compound 9]
Max. Resp. (%): 80%
AC50 [1]: 15400 nM

Compound: O=C(c1cc(Br)n[nH]1)N(Cc1cccc2[nH]c(=O)sc12)CC1CCC1 [Compound 10]
Max. Resp. (%): 127%
AC50 [1]: 2740 nM

Compound: O=C(c1cc(Br)n[nH]1)N(Cc1ccc(O)cc1F)CC1CNC1 [Compound 11]
AC50: 10400 nM
Max. Resp. (%): 61%

Compound: O=C(c1cc(C(F)(F)F)n[nH]1)N(Cc1cccc2[nH]ccc12)CC1COC1 [Compound 12]
Max. Resp. (%): 101%
AC50 [1]: 3270 nM

Compound: CC(C)(C)CN(Cc1cccc2[nH]ccc12)C(=O)c1cc(C(F)(F)F)n[nH]1 [Compound 13]
Max. Resp. (%): 33%
AC50 [1]: 49100 nM

Max. Resp. (%): 81%
Compound: O=C(c1cc(C(F)(F)F)n[nH]1)N(Cc1cccc2c1CCN2)CC1CCC1 [Compound 14]

Compound: O=C(c1cc(C(F)(F)F)n[nH]1)N(Cc1ccc(O)cc1F)CC1COC1 [Compound 15]
Max. Resp. (%): 102%
AC50 [1]: 150 nM

Compound: CCCC(C)N(Cc1ccccc1)C(=O)c1cc(C(F)(F)F)n[nH]1 (stereo not shown) [Compound 16]
Max. Resp. (%): 22%
AC50 [1]: 74800 nM

Max. Resp. (%): 83%
AC50 [1]: 138 nM
Compound: CCCCCN(Cc1ccccc1F)C(=O)c1cc(C(F)(F)F)n[nH]1 [Compound 17]

Compound: CCCCCN(Cc1ccccc1)C(=O)c1cc(C(F)(F)F)n[nH]1 [Compound 19]
Max. Resp. (%): 76%
AC50 [1]: 920 nM

Compound: O=C(c1cc(C(F)(F)F)n[nH]1)N(Cc1ccccc1F)CC1COC1 [Compound 20]
Max. Resp. (%): 70%
AC50 [1]: 12000 nM

AC50 [1]: > 10000 nM
Compound: O=C(c1cc(C(F)(F)F)n[nH]1)N(Cc1ccc(O)cc1F)C1CCOCC1 [Compound 21]

Max. Resp. (%): 99%
AC50 [1]: 1520 nM
Compound: O=C(c1cc(C(F)(F)F)n[nH]1)N(Cc1ccccc1F)C1CCOCC1 [Compound 22]

Compound: COCCCN(Cc1ccccc1F)C(=O)c1cc(C(F)(F)F)n[nH]1 [Compound 23]
Max. Resp. (%): 75%
AC50 [1]: 7540 nM

Compound: CCOCCN(Cc1ccc(O)cc1F)C(=O)c1cc(C(F)(F)F)n[nH]1 [Compound 24]
Max. Resp. (%): 100%
AC50 [1]: 210 nM

Compound: O=C(c1cc(C(F)(F)F)n[nH]1)N(Cc1ccccc1F)c1ncco1 [Compound 25]
Max. Resp. (%): 35%
AC50 [1]: 53000 nM

Compound: O=C(c1cc(C(F)(F)F)n[nH]1)N(CCC1CCOC1)Cc1ccccc1F (stereo not shown) [Compound 26]
Max. Resp. (%): 99%
AC50 [1]: 377 nM

Compound: O=C(c1cc(C(F)(F)F)n[nH]1)N(Cc1ccccc1Cl)CC1COC1 [Compound 27]
AC50: 33000 nM
Max. Resp. (%): 47%

Max. Resp. (%): 87%
Compound: CCOCCN(Cc1ccccc1Cl)C(=O)c1cc(C(F)(F)F)n[nH]1 [Compound 29]

Max. Resp. (%): 72%
Compound: CCOCCN(Cc1ccccc1F)C(=O)c1cc(C(F)(F)F)n[nH]1 [Compound 30]

Compound: COCCCN(Cc1ccccc1Cl)C(=O)c1cc(C(F)(F)F)n[nH]1 [Compound 31]
Max. Resp. (%): 82%
AC50 [1]: 9590 nM

Compound: O=C(c1cc(C(F)(F)F)n[nH]1)N(CCC1CCOCC1)Cc1ccccc1Cl [Compound 32]
Max. Resp. (%): 107%
AC50 [1]: 1000 nM

Compound: O=C(c1cc(C(F)(F)F)n[nH]1)N(CCC1CCOC1)Cc1c(Cl)cccc1Cl (stereo not shown) [Compound 33]
Max. Resp. (%): 81%
AC50 [1]: 4030 nM

Compound: O=C(c1cc(C(F)(F)F)n[nH]1)N(CCC1CCOC1)Cc1ccc(O)cc1F (stereo not shown) [Compound 34]
Max. Resp. (%): 109%
AC50 [1]: 77 nM

Compound: O=C(c1cc(C(F)(F)F)n[nH]1)N(Cc1ccccc1Cl)C1CCOCC1 [Compound 35]
AC50: 5080 nM
Max. Resp. (%): 59%

Compound: O=C(c1cc(C(F)(F)F)n[nH]1)N(CCC1CCCOC1)Cc1ccccc1Cl (stereo not shown) [Compound 36]
Max. Resp. (%): 88%
AC50 [1]: 1220 nM

Compound: CC(C)OCCN(Cc1ccccc1Cl)C(=O)c1cc(C(F)(F)F)n[nH]1 [Compound 37]
Max. Resp. (%): 37%
AC50 [1]: 42000 nM

Compound: CCOCCCN(Cc1ccccc1Cl)C(=O)c1cc(C(F)(F)F)n[nH]1 [Compound 38]
Max. Resp. (%): 47%
AC50 [1]: 33000 nM

Compound: O=C(c1cc(C(F)(F)F)n[nH]1)N(CCOC1CCCC1)Cc1ccccc1F [Compound 39]
Max. Resp. (%): 30%
AC50 [1]: 47000 nM

Compound: O=C(c1cc(C(F)(F)F)n[nH]1)N(CCC1CCOC1)Cc1c(F)cccc1F (stereo not shown) [Compound 40]
AC50: 1170 nM
Max. Resp. (%): 114%

Compound: O=C(c1cc(C(F)(F)F)n[nH]1)N(CCC1CCOCC1)Cc1ccccc1F [Compound 41]
Max. Resp. (%): 118%
AC50 [1]: 1260 nM

Compound: CCOCCN(Cc1c(Cl)cccc1Cl)C(=O)c1cc(C(F)(F)F)n[nH]1 [Compound 42]
Max. Resp. (%): 76%
AC50 [1]: 8780 nM

Compound: O=C(c1cc(C(F)(F)F)n[nH]1)N(CCC1CCOC1)Cc1ccccc1Cl (stereo not shown) [Compound 43]
AC50: 1330 nM
Max. Resp. (%): 110%

Compound: O=C(c1cc(C(F)(F)F)n[nH]1)N(CCC1CCCCO1)Cc1ccccc1Cl (stereo not shown) [Compound 44]
Max. Resp. (%): 32%
AC50 [1]: 50000 nM

Compound: O=C(c1cc(C(F)(F)F)n[nH]1)N(Cc1ccccc1F)CC1CCOCC1 [Compound 45]
Max. Resp. (%): 52%
AC50 [1]: 25100 nM

Compound: O=C(c1cc(C(F)(F)F)n[nH]1)N(CCC1CCCO1)Cc1ccccc1F (stereo not shown) [Compound 46]
Max. Resp. (%): 70%
AC50 [1]: 13400 nM

Compound: CO[C@H]1CC[C@H](N(Cc2ccccc2F)C(=O)c2cc(C(F)(F)F)n[nH]2)CC1 [Compound 47]
Max. Resp. (%): 89%
AC50 [1]: 435 nM

Compound: CO[C@H]1CC[C@H](N(Cc2cccc(F)c2)C(=O)c2cc(C(F)(F)F)n[nH]2)CC1 [Compound 48]
Max. Resp. (%): 80%
AC50 [1]: 8580 nM

Compound: CO[C@H]1CC[C@H](N(Cc2c(F)cccc2F)C(=O)c2cc(C(F)(F)F)n[nH]2)CC1 [Compound 49]
Max. Resp. (%): 122%
AC50 [1]: 914 nM

Compound: CO[C@H]1CC[C@H](N(Cc2cc(F)ccc2F)C(=O)c2cc(C(F)(F)F)n[nH]2)CC1 [Compound 50]
AC50: 1670 nM
Max. Resp. (%): 90%

Compound: CO[C@H]1CC[C@H](N(Cc2cc(F)cc(F)c2)C(=O)c2cc(C(F)(F)F)n[nH]2)CC1 [Compound 51]
Max. Resp. (%): 31%
AC50 [1]: 50400 nM

Compound: CO[C@H]1CC[C@H](N(Cc2ccccc2Cl)C(=O)c2cc(C(F)(F)F)n[nH]2)CC1 [Compound 52]
Max. Resp. (%): 100%
AC50 [1]: 879 nM

Compound: CC(C)O[C@H]1CC[C@H](N(Cc2ccccc2Cl)C(=O)c2cc(C(F)(F)F)n[nH]2)CC1 [Compound 53]
Max. Resp. (%): 63%
AC50 [1]: 2290 nM

Compound: CO[C@H]1CC[C@H](N(Cc2cccc(N)c2)C(=O)c2cc(C(F)(F)F)n[nH]2)CC1 [Compound 54]
Max. Resp. (%): 93%
AC50 [1]: 365 nM

Compound: CCO[C@H]1CC[C@H](N(Cc2ccccc2F)C(=O)c2cc(C(F)(F)F)n[nH]2)CC1 [Compound 55]
AC50: 469 nM
Max. Resp. (%): 101%

Compound: CO[C@H]1CC[C@H](N(Cc2ncccc2Cl)C(=O)c2cc(C(F)(F)F)n[nH]2)CC1 [Compound 56]
AC50: 2580 nM
Max. Resp. (%): 48%

Compound: O=C(c1cc(C(F)(F)F)n[nH]1)N(CCC1CCC2(CC1)OCCO2)Cc1ccccc1F [Compound 59]
Max. Resp. (%): 100%
AC50 [1]: 494 nM

Compound: O=C1CCC(CCN(Cc2ccccc2F)C(=O)c2cc(C(F)(F)F)n[nH]2)CC1 [Compound 60]
Max. Resp. (%): 105%
AC50 [1]: 101 nM

Compound: O=C(c1cc(C(F)(F)F)n[nH]1)N(CCC1CCS(=O)(=O)C1)Cc1ccccc1Cl (stereo not shown) [Compound 62]
AC50: 273 nM
Max. Resp. (%): 105%

Compound: O=C(c1cc(C(F)(F)F)n[nH]1)N(CCC1CCS(=O)(=O)C1)Cc1ccccc1F (stereo not shown) [Compound 63]
Max. Resp. (%): 87%
AC50 [1]: 240 nM

Compound: O=C(c1cc(C(F)(F)F)n[nH]1)N(CCC1CCS(=O)(=O)C1)Cc1c(Cl)cccc1Cl (stereo not shown) [Compound 64]
Max. Resp. (%): 71%
AC50 [1]: 3780 nM

Compound: O=C(c1cc(C(F)(F)F)n[nH]1)N(CCC1CCS(=O)(=O)C1)Cc1c(F)cccc1F (stereo not shown) [Compound 66]
AC50: 375 nM
Max. Resp. (%): 102%

Compound: O=C(c1cc(C(F)(F)F)n[nH]1)N(CCC1CCS(=O)(=O)C1)Cc1cccc(F)c1 (stereo not shown) [Compound 67]
AC50: 1630 nM
Max. Resp. (%): 95%

Compound: O=C(c1cc(C(F)(F)F)n[nH]1)N(CCC1CCS(=O)(=O)C1)Cc1cccc(F)c1F (stereo not shown) [Compound 68]
Max. Resp. (%): 103%
AC50 [1]: 766 nM

Compound: O=C(c1cc(C(F)(F)F)n[nH]1)N(CCC1CCS(=O)(=O)C1)Cc1cc(F)cc(F)c1 (stereo not shown) [Compound 69]
Max. Resp. (%): 74%
AC50 [1]: 1830 nM

Compound: O=C(c1cc(C(F)(F)F)n[nH]1)N(CCC1CCS(=O)(=O)C1)Cc1cc(F)ccc1F (stereo not shown) [Compound 70]
Max. Resp. (%): 91%
AC50 [1]: 884 nM

Compound: O=C(c1cc(C(F)(F)F)n[nH]1)N(Cc1ccccc1F)CC1CCS(=O)(=O)CC1 [Compound 71]
Max. Resp. (%): 71%
AC50 [1]: 10200 nM

Compound: O=C(c1cc(C(F)(F)F)n[nH]1)N(Cc1ccccc1Cl)CC1CCS(=O)(=O)CC1 [Compound 72]
Max. Resp. (%): 22%
AC50 [1]: 19700 nM
